The source of these data is US5242902A, “Defensin peptide compositions and methods for their use” (The Regents of the University of California, priority 1989, dated 1993).

Data set [1] deals with panel of organisms in stationary growth phase. As to conditions: cited from earlier work.
For data set [2], the system named is Nakano mouse lens epithelial cells. The experiment in a line: In vitro cell growth assay (3H-thymidine incorporation, cell counts), serum free. Format: cell-based. The procedure:
(§1) Cell growth assays were performed as previously described in Reid et al., (1987), J. Biol. Chem. 262:229-233. Briefly, cells were grown to confluence in 96-well plates in media plus serum and arrested in G0/G1 by either serum starvation for 2-days (epithelial cells) or 8-10 day serum depletion followed by serum starvation for 1-day (fibroblasts). At this point the media was removed and new media with the desired factors was added. Approximately 16 hours later ^3 -thymidine was added and 20 to 28 hours later the cells were washed, lysed and the amount of ^3 H-thymidine incorporated into DNA was measured. In some cases, actual cell counts were performed.
(§2) The growth stimulatory properties of human defensins HNP-1, HNP-2, HNP-3 and rabbit defensins NP-1 and NP-5 in a serum free growth assay system were tested. SIRC rabbit corneal epithelial cells, Nakano mouse lens epithelial cells, and NIH 3T3 fibroblasts were utilized in these studies.
In general terms: Incorporation of labelled thymidine or its analogues reports DNA synthesis.

For data set [3], the system named is SIRC rabbit corneal epithelial cells. Description: In vitro cell growth assay (3H-thymidine incorporation), serum free. Format: cell-based. The procedure:
as §1, §2

The test system of the next data set is NIH 3T3 fibroblasts. The description is as above. Format: cell-based. The protocol: as §1, §2
Data set [4] relates to capsaicin-treated corneas. Format: in vivo. The protocol:
Capsaicin-treated corneas from adult rabbits were used to determine the effects of topically applied defensins on corneal re-epithelialization. Capsaicin depletes neuropeptides which have an effect on wound healing (data not shown). The rabbits received 0.4 ml of lidocaine diluted in 2.6 ml of sterile saline delivered subcutaneously between the cranial aspect of the interscapular space. After 10 minutes, 50 mg/kg of capsaicin (100 mg/ml) was delivered through a 11/2 inch 25 gauge needle. Repeat injections of capsaicin was given once a day for four additional days. Three weeks from the last injection bilateral corneal defects were created as described below and the eyes treated topically with test solutions. The cornea was treated with two drops of test solution after creation of the epithelial defect. Upon completion of surgery, the rabbit was returned to its cage onto a warm heating pad. Sequential corneal photographs were taken after installation of fluoroscein and the rate of epithelial wound healing determined.
The effects of topically applied HNP-1 on the epithelial wound healing of neuropeptide depleted rabbit corneas was investigated. Corneas of rabbits treated systemically with capsaicin have impaired epithelial healing. In this model, capsaicin (50 mg/kg) was injected subcutaneously for 5 consecutive days into New Zealand white rabbits. Lidocaine was delivered subcutaneously into the capsaicin injection site 10 minutes prior to the first injection. Three weeks after the injections, the animals were anesthetized (ketamine/xylazine), topical anesthetic applied to the cornea, and the epithelium debrided circumferentially to the limbal margin of clear cornea. Absolute alcohol on microcellulose sponges and a dull #15 Bard Parker blade were used to remove the epithelium. Care was taken that no alcohol ran over the clear corneal edge to damage the limbal epithelium. The corneas were stained with fluorescein and photographed twice daily to monitor re-epithelialization. […]

On to “HNP-1: human neutrophil defensin peptide isolated from PMN; sequence in Table 1”, for which, in data set [1], the “relative antimicrobial potency among defensins” value was “most potent antimicrobial properties”. The “growth promoting response with bovine serum albumin” value in data set [2] (5 mg/ml BSA added at varying times after stimulation (FIGS. 7 and 8), preliminary) was “response curve is shifted to the right and that the plateau phase is extended”. Moreover, the “stimulatory properties (DNA synthesis)” value in data set [3] (corneal epithelial cells (FIG. 9)) is “stimulatory”; with NIH 3T3 fibroblasts (3T3 fibroblasts, presence and absence of insulin (FIG. 10)), “stimulatory”. Moreover, the “effect at higher concentrations” value in data set [3] (corneal epithelial cells, higher concentrations) is “suppression observed at higher concentrations”. The “suppression at higher concentrations” value in the data set on NIH 3T3 fibroblasts (3T3 fibroblast cells, higher concentrations) is “not observed”. Besides, the “time to re-epithelialization of treated eye” value in data set [4] (100 μg/ml topical 4 times a day, control eye healed at 6.5 days) was determined as 5.5 days. Besides, the “re-epithelialization of treated versus fellow control eye” value in data set [4] (100 μg/ml topical, one rabbit) is “both corneas re-epithelialized simultaneously”. The “effect on the cornea or conjunctiva (tolerability)” value in data set [4] (topical, 4 times a day, 40 or 100 μg/ml in sterile water, four rabbits) was “no deleterious effect on the cornea or conjunctiva”.
For “HNP-3: human neutrophil defensin peptide; sequence in Table 1”, in data set [2] (cell counts (FIG. 6)), the actual cell number entry is recorded as “increase in actual cell number”. Further, the “stimulatory effect on cell number compared with insulin and EGF” value in data set [2] (insulin and EGF at concentrations which elicit maximal response (FIG. 6)) was “surpassed that of insulin and EGF”.
